Results on 10 substances are retold here after patent US11013715B2, “Nanoemulsion hydrophobic substances” (Vertosa, Inc., priority 2018, dated 2021).

Like-named read-outs stand apart in the source and are kept apart here.

Data set [1] can be described thus: Emulsion droplet average size by Dynamic Light Scattering. Particulars: named Span as co-surfactant; 1 g cannabinoid, 0.625 g olive oil, 3.75 g Tween 80, Span:Tween 80 1:6; 45 mL; 80% amplitude sonication until plateau; DLS. In kind it is physicochemical. The method, then:
Droplet size change was monitored by DLS time wise.
Sometimes, measuring concentrated nano-emulsion (>10 mg/g) by Dynamic Light Scattering could have misleading data. Since at higher concentration, the emulsion droplets pack close to each other and may generate unreal scattering pattern. […] While the nanosized droplets are a preferred embodiment of the instant application, larger sized droplets are contemplated as well. Sometimes, larger size emulsion is generated by design to achieve desirable effects.
As is generally known in the art, droplet sizes and their distribution may affect the human feeling on flavor. On one side, nano-size can amplify or even alter the taste, something tastes plain at bulk may taste bitter or sour in nano-scale. On the other side, taste buds on tongue tend to have different time reactions to different sizes of particles. The smaller droplets can quickly absorb at the gap of the tasting buds, thus blocking the touching/feeling from bigger droplets. The droplet size can be well controlled by how much energy is put into the liquid system, which can be controlled either by amplitude % of the sonicator or by how long the liquid is being sonicated at certain amplitude %.
The sonicator continuously calibrates itself to ensure consistent output. A commercially available sonicator may be used to make the compositions disclosed herein. The wattage of such a sonicator may vary from 250 W to about 800 W, and more preferably between about 350 W to about 650 W, and most preferably between 450 W to about 550 W. The output energy depends on the viscosity of the emulsion and also temperature. […] Processing amplitude are adjustable, and it is within a linear relation with intensity. And process time can also be adjustable, which will determine total input energy under certain intensity. Since each formula may need different amount of energy to get into nanosize, we usually monitor droplet size change with Dynamic Light Scattering over production time to determine when to stop the sonication.
1 g of cannabis and 5 g of the Formula 1 are added to a 100 ml beaker, and mechanically stirred under controlled heat (<60° C.), until it is well mixed. The cannabis oil may be a full plant extract or a high pure distillate. Water is added to the mixture, the amount of water is determined by the final targeting concentration. The mixture is kept stirring until a homogenous milky coarse emulsion is formed.

For data set [2] the following is noted: cited from earlier work.
Setting [3] is: Span surfactants, Example 9 table.
The mark [4] stands for this setting: Table 1, HLB=20*Mh/M, scale 0 to 20.

As for Span 83, in data set [1], the “Final Emulsion droplet average size (nm)” value is 560 nm.

For the substance Span 85, the “Final Emulsion droplet average size (nm)” value in data set [1] came out at 876 nm.

Consider Span 40, for which the “Final Emulsion droplet average size (nm)” value in data set [1] is 245 nm. The HLB in data set [2] (setting [3]) is recorded as 6.7.

polyglyceryl-6 oleate: the HLB in data set [2] (setting [4]) is recorded as 9.

Consider Span 60, for which the “Final Emulsion droplet average size (nm)” value in data set [1] came out at 316 nm. Moreover, the HLB in data set [2] (setting [3]) is given as 4.7.

In the case of Span 120, the “Final Emulsion droplet average size (nm)” value in data set [1] is on record as 302 nm. In data set [2] (setting [3]), the HLB is given as 4.7.

Turning to Polyglyceryl-6 Stearate, the HLB in data set [2] (setting [4]) is 9.

As for Span 80, the “Final Emulsion droplet average size (nm)” value in data set [1] came out at 387 nm. For the same substance, the HLB in data set [2] (setting [3]) is 4.3.

Consider Tween 81, for which the HLB in data set [2] (setting [4]) is on record as 10.

Span 20: the “Final Emulsion droplet average size (nm)” value in data set [1] worked out at 91 nm.
